# Laboratory results: article PMC10763578 (Cell host & microbe, 2023)
# Biological target: CgaA (cytosolic glutathione amidotransferase A; FTN_0435) (Francisella tularensis, UniProt A0Q523)
# Details: 10 mM substrate, 1 uM enzyme, 60 min, 300 mM NaCl, 50 mM Tris-Cl pH 8.5, 37 °C
# Chain of CgaA (cytosolic glutathione amidotransferase A; FTN_0435) (A0Q523 1-235): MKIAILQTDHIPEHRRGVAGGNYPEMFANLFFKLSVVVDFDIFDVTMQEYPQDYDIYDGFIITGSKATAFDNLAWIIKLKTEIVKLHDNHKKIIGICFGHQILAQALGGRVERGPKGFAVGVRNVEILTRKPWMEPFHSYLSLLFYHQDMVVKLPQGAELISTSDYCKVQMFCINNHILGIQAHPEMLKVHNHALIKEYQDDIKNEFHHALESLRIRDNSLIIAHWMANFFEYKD
structure (smiles),measurement,value
"NC(=O)CC[C@H](N)C(=O)O [Gln, glutamine]","glutamate release, coupled colorimetric kit (A450)",we detected only a low level of glutamate accumulation following incubation of CgaA with glutamine
